Laboratory results taken from paper PMC10221469 (Viruses, 2023).

Test system: SARS-CoV-2 pseudovirus (lentiviral vector, spike D614G)
Format: cell-based
Details: read-out: IC50 pseudovirus entry (luciferase output)

Compound | IC50 [nM]
COc1cc(NCc2ccc3nc(N)nc(N)c3c2C)cc(OC)c1OC [Trimetrexate] | 225
C#CCC(Cc1cnc2nc(N)nc(N)c2n1)c1ccc(C(=O)N[C@@H](CCC(=O)O)C(=O)O)cc1 (some centres unmarked) [Pralatrexate] | 12.1
